The results in this text go back to article PMC9948211 (ACS Omega, 2023).

pIC50: −log10 of the molar value.

This assay deals with T1, PPAR-γ (Homo sapiens, UniProt P37231).
T1 sequence (P37231 1-505): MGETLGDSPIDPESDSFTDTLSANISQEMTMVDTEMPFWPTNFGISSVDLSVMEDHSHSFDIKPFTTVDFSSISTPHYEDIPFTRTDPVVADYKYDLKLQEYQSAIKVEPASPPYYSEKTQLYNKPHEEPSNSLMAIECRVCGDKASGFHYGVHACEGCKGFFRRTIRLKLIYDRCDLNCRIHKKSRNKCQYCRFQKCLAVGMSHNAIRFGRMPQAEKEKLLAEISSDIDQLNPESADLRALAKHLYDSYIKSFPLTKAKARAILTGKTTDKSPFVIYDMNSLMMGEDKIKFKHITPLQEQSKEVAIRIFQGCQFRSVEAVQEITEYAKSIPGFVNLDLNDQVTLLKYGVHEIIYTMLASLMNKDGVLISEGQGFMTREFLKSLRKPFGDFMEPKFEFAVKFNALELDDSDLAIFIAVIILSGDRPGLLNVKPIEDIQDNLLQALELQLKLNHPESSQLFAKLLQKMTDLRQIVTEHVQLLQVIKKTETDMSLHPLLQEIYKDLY
Nature of the assay: LanthaScreen TR-FRET competitive binding assay.

As for `COc1cc(CC/C(C)=N\O)ccc1OCC(=O)Nc1ccc(F)cc1` [G1, (Z)-N-(4-Fluorophenyl)-2-(4-(3-(hydroxyimino)butyl)-2-methoxyphenoxy)acetamide], the pIC50 (commonly −log10 of the IC50, conventionally taken in molar units) was 5.65.

The compound `COc1cc(CC/C(C)=N\O)ccc1OCC(=O)Nc1nccs1` [G2, (Z)-2-(4-(3-(Hydroxyimino)butyl)-2-methoxyphenoxy)-N-(thiazol-2-yl)acetamide] gave a pIC50 of 5.35.
